Source: article PMC11372839, “Unraveling the Potential of Vitamin B3-Derived Salts with a Salicylate Anion as Dermal Active Agents for Acne Treatment” (Molecular Pharmaceutics, 2024)
Like-named read-outs stand apart in the source and are kept apart here.

Tests used:
[1] = Octanol–water partition coefficient, shake-flask method (OECD Test No. 107); format: physicochemical
Experimental: The octanol–water partition coefficients (KOW) of the synthesized products were estimated by the shake-flask method according to the OECD Test No. 107 guidelines (Partition Coefficient n-Octanol/Water: Shake-Flask Method). Measurements were performed using mutually saturated distilled water and 1-octanol in a glass vial containing a magnetic stir bar. First, the synthesized products were dissolved in distilled water (or 1-octanol) at a chosen concentration (0.01 mol per 1 L of octanol or water), and then proper amounts of the second solvent (octanol or water) were added. Subsequently, two duplicate runs were carried out with different solvent ratios: 4 mL of 1-octanol and 2 mL of water (2:1), 4 mL of 1-octanol and 4 mL of water (1:1), and 4 mL of 1-octanol and 8 mL of water ([…]). All vials were shaken at a constant temperature of 25 °C. After 24 h, all samples were centrifuged and the aqueous and octanolic phases were collected with a syringe. The concentrations of compounds in water were determined spectrophotometrically using a Rayleigh UV-1601 spectrophotometer (Beijing Beifen-Ruili Analytical, China) based on calibration curves made previously (at λmax = 262 nm) vs concentration for each substance. Two repetitions of each measurement were performed in a specific solvent ratio (1:1, 1:2, and 2:1). Finally, the log KOW was calculated as the average of six results collected for each compound.
The outermost layer of the skin (stratum corneum) contains around […] water, a relatively low amount compared to the rest of the human body. Given the hydrophobic nature of 1-octanol, it can be used as a simplified model for the stratum corneum.[50] The octanol–water partition coefficient (KOW) value represents the proportion between the concentrations of a substance in both liquid phases of a system composed of water and 1-octanol. […] The log KOW values are given in Figure 6 (exact values are provided in Table S4, Supporting Information).

[2] = Contact angle of aqueous solutions, sessile drop method on paraffin; format: physicochemical; details: aqueous solution, 25 °C
Experimental: The contact angle (CA) measurements were carried out using a DSA100S analyzer (Krüss, Germany, accuracy ±0.1°), at 25 °C. The determination of the contact angle was based on the sessile drop method, i.e., drops of the analyzed solution were deposited on a solid surface (paraffin). The images of the drops were taken with a CCD camera, digitized, and evaluated using Young–Laplace fitting. The CA was determined as the slope of the tangent line at the contact point between the 3 phases (solution, paraffin surface, and air).
In the case of seborrheic skin, which occurs among many people affected by acne, the epidermis is covered by a hydrophobic lipid layer, which impedes the penetration of active substances, especially those that are well soluble in water. In addition, ensuring proper drug absorption through the skin can also reduce the risk of side effects and increase the effectiveness of therapy.[72] The addition of surfactants, which improve the wettability of hydrophobic surfaces, can be a solution to this problem.[73],[74] […] Wettability analyses of aqueous solutions of the new APIs were carried out on paraffin, whose hydrophobicity is similar to that of the human skin.[75] Experiments were performed at concentrations corresponding to common NA and SAL contents in commercial formulations (0.25–1.00%).[67],[76],[77] Due to low solubilities of 5–7, tests for these salts were performed at concentrations of 0.25, 0.03, and 0.01%, respectively (please see Figure S43 in the Supporting Information).

Staphylococcus aureus = experiment: MIC and MBC determination, microdilution method; format: cell-based; details: for MIC: 18 h, read-out: MIC, S. aureus; for MBC: read-out: MBC, S. aureus
Experimental: (§1) The antimicrobial activities of the compounds were tested against clinical strains of an aerobic Gram-negative bacterium—Pseudomonas aeruginosa (P. aeruginosa), facultative anaerobic Gram-positive bacteria—Staphylococcus aureus (S. aureus) and Staphylococcus epidermidis (S. epidermidis), anaerobic Gram-positive bacterium—Cutibacterium acnes (C. acnes), and yeast-like fungus—Candida albicans (C. albicans).
(§2) Aerobic and facultative anaerobic bacteria cultures were grown in Brain Heart Infusion broth (BHI, bioMerieux, France) at 35 °C ± 1 °C for 18 h, C. acnes cultures were grown in thioglycolate broth with resazurin (TGB, bioMerieux, France) at 35 ± 1 °C for 48 h, and yeast cultures were grown in Sabouraud dextrose broth (SDB, Merck, Germany) at 35 ± 1 °C for 24 h. After incubation, each culture was diluted in a suitable liquid medium: P. aeruginosa, S. aureus, and S. epidermidis—Mueller–Hinton broth (MHB; Oxoid, UK); C. acnes—TGB; and C. albicans—SDB, to obtain a final suspension containing about 10^6 CFU/mL.
(§3) The microdilution method was employed to determine the compounds’ MIC (Minimal Inhibitory Concentration) and MBC/MFC (Minimal Bactericidal Concentration/Minimal Fungicidal Concentration) against the tested bacterial and fungal strains.
(§4) The compounds were serially diluted (2-fold) in the respective media (P. aeruginosa, S. aureus, and S. epidermidis—MHB, C. acnes—TGB, and C. albicans—SDB in 96-well plates), and the microbial suspensions were added. The compounds were tested in the final concentration range of 4 096 to 0.125 μg/mL, and the final microbial inoculum was approximately 5 ×10^5 CFU/mL. The tests were incubated at 35 °C ± 1 °C for 18 h (P. aeruginosa, S. aureus, and S. epidermidis) or 24 h (C. albicans) or 48 h (C. acnes). C. acnes was incubated in an anaerobic atmosphere using a GENbag anaer (bioMerieux, France). Media (without the strains) added to the different concentrations of tested compounds and media inoculated with microbial suspension were used as a negative control and growth control, respectively.
(§5) The MIC was defined as the lowest concentration at which visible growth was inhibited. MBC and MFC concentrations were determined as an extension of the MIC test. […] The plates were incubated at 35 ± 1 °C for 18–72 h. C. acnes was incubated in an anaerobic atmosphere. The MBC/MFC was defined as the lowest concentration at which no growth was observed. All tests were performed in duplicate.

[3] = test system: Staphylococcus epidermidis; experiment: MIC and MBC determination, microdilution method;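 on all read-outs here: column refers to Staphylococcus epidermidis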; format: cell-based; details: for MIC: 18 h, read-out: MIC, S. epidermidis; for MBC: read-out: MBC, S. epidermidis
Experimental: as §1, §2, §3, §4, §5

Artemia franciscana = experiment: Ecotoxicity toward aquatic life, Artoxkit M immobilization test; format: in vivo; details: for EC50: Artemia franciscana; for Class: acute toxicity rating scale by Fish and Wildlife Service
Experimental: To determine the EC50 parameter for compounds, tests were carried out on marine crustaceans—Artemia franciscana (A. franciscana). The methodology proposed in the Artoxkit M test (MicroBioTests Inc., Gent, Belgium) was developed according to the ASTM E1440-91 standard.
The hatching process was started first. For this purpose, 50 mg of cysts was transferred to the Petri dishes attached to the Artoxkit M set, which were then immersed in 10 mL of artificial seawater with a salinity of 35‰ (a medium for the development of the tested organisms, as well as a solvent for preparing solutions of the tested compounds) and placed at a temperature of 25 °C, with access to light (6000–10,000 lux) for 30 h. Then, 2 h before placing them on the Artoxkit M plates, 20 mg of spirulina was added to cultured artemias. In addition, 1 h before the analysis, the used seawater was oxygenated by passing a stream of air through the solution. To each of the four cells in a given row of a plate from the Artoxkit M kit, 1 mL of solution at the specified concentrations (or the appropriate medium in the case of a control) were introduced. In the first column of cells (a control sample and five selected concentrations), no less than 30 artemias were placed from previously prepared Petri dishes. Then, from the first cell in the first column, artemias were collected at the selected concentration and added to the next three cells in the selected row, 10 organisms per cell. After the organisms were introduced into the appropriate cells, the plates were covered with Parafilm and then closed with a plastic cap. The prepared kit was incubated at 25 °C and protected from light. Number of motionless organisms were counted after 24 and 48 h. Immobilization was then calculated (eq 1) in relation to the number of organisms at the start of the test: [drawing 1] 1
Next, the dependence between the effect and concentration of the tested compounds was plotted, and on this basis, an EC50 value was determined.

Solubility in PBS = details: for Solubility in PBS, Class: Pharmacopeia solubility class, PBS pH 7.4, 25 °C
Experimental: The solubility in PBS solution was determined by placing 1 g (±0.0001) of tested compound in a round-bottom flask and adding specific parts of the PBS solution in portions until full dissolution. The samples were vigorously stirred for at least 5 min before the addition of the next portion of PBS, and the systems were thermostated at 25 °C. Three repetitions of the measurement were performed for each of the compounds.
Most studies on the solubility of novel APIs are carried out with pure water, aqueous PBS solutions were much more preferred due to their higher similarity to intra- and intercellular media in epidermis, while envisaging their use in transdermal delivery and skin care applications.[60] […] The collected data are presented in Figure 8 (as well as in Table S6 in the Supporting Information).

Candida albicans = experiment: MIC and MFC determination, microdilution method; format: cell-based; details: for MIC: 24 h, read-out: MIC, C. albicans
Experimental: as §1, §2, §3, §4, §5

Pseudomonas aeruginosa = experiment: MIC and MBC determination, microdilution method; format: cell-based; details: for MIC: 18 h, read-out: MIC, P. aeruginosa
Experimental: as §1, §2, §3, §4, §5

Cutibacterium acnes = experiment: MIC and MBC determination, microdilution method; format: cell-based
Experimental: as §1, §2, §3, §4, §5

[4] = design: method as in doi:10.1080/10826076.2015.1057642, PMID 22469554, PMID 31982561; details: frequently used topical acne agents; cited from earlier work
[5] = shake-flask, 25 °C, 24 h, average of six results, read-out: Octanol-water partition coefficient (log Kow)
[6] = toxicity range of EC50, read-out: Range
[7] = volume of PBS (pH 7.4) to dissolve 1 g, 25 °C

CC[n+]1cccc(C(N)=O)c1.O=C([O-])c1ccccc1O [compound 1]
logP at 24 h [1, 5]: -1.15 | Contact angle ([2]; concentration 0.25%): 112.1 ° | Contact angle ([2]; concentration 0.50%): 110.3 ° | Contact angle ([2]; concentration 1.00%): 109.7 ° | MIC (Staphylococcus aureus): 1020 µg/mL | MIC [3]: 4100 µg/mL | EC50 (Artemia franciscana; [6]): > 1000 µg/mL | Class (Artemia franciscana): Relatively Harmless (>1000) | Solubility in PBS, Class (Solubility in PBS): Very Soluble (<1) | Solubility in PBS, PBS [ml] (Solubility in PBS; [7]): < 1 mL

CCCC[n+]1cccc(C(N)=O)c1.O=C([O-])c1ccccc1O [compound 2]
logP at 24 h [1, 5]: -0.7 | Contact angle ([2]; concentration 0.25%): 102.7 ° | Contact angle ([2]; concentration 0.50%): 104.3 ° | Contact angle ([2]; concentration 1.00%): 103.9 ° | MIC (Staphylococcus aureus): 1020 µg/mL | MIC [3]: 2050 µg/mL | EC50 (Artemia franciscana; [6]): > 1000 µg/mL | Class (Artemia franciscana): Relatively Harmless (>1000) | Solubility in PBS, Class (Solubility in PBS): Very Soluble (<1) | Solubility in PBS, PBS [ml] (Solubility in PBS; [7]): < 1 mL

NC(=O)c1cccnc1.O=C(O)c1ccccc1O [[NA][SAL], reference compound]
MIC (Candida albicans): 2050 µg/mL | Contact angle ([2]; concentration 0.25%): 110.5 ° | Contact angle ([2]; concentration 0.50%): 108.3 ° | Contact angle ([2]; concentration 1.00%): 99.9 ° | Contact angle ([2]; concentration 1.00%, listed as cocrystal): 100 ° | MIC (Staphylococcus aureus): 2050 µg/mL | MBC (Staphylococcus aureus): 2050 µg/mL | MIC (Pseudomonas aeruginosa): 2050 µg/mL | MIC [3]: 2050 µg/mL | MBC [3]: 2050 µg/mL | MBC, C. acnes (Cutibacterium acnes; clinical strain, anaerobic, tested 4 096 to 0.125 μg/mL, b = out of range): did not show bactericidal activity | EC50 (Artemia franciscana): 565 µg/mL | EC50 (Artemia franciscana; read-out: Range): 100 to 1000 µg/mL | Class (Artemia franciscana): Practically Nontoxic (100-1000) | Solubility in PBS, Class (Solubility in PBS): Sparingly Soluble (30-100) | Solubility in PBS, PBS [ml] (Solubility in PBS; [7]): 30 to 100 mL

NC(=O)c1cccnc1 [NA, nicotinamide, reference compound]
logP at 24 h [1]: -0.66 | Contact angle ([2]; concentration 0.25%): 112.7 ° | Contact angle ([2]; concentration 0.50%): 110.7 ° | Contact angle ([2]; concentration 1.00%): 110.6 ° | EC50 (Artemia franciscana; [6]): > 1000 µg/mL | Class (Artemia franciscana): Relatively Harmless (>1000) | Solubility in PBS, PBS [ml] (Solubility in PBS; pH 7.4): < 1 mL

CCCCCCCCCCCCCC[n+]1cccc(C(N)=O)c1.O=C([O-])c1ccccc1O [compound 7]
MIC (Candida albicans): 16 µg/mL | MFC (Candida albicans; read-out: MFC, C. albicans): 16 µg/mL | logP at 24 h [1, 5]: 1.34 | MIC (Staphylococcus aureus): 0.5 µg/mL | MBC (Staphylococcus aureus): 0.5 µg/mL | MIC (Pseudomonas aeruginosa): 64 µg/mL | MBC (Pseudomonas aeruginosa; read-out: MBC, P. aeruginosa): 64 µg/mL | MIC [3]: 4 µg/mL | MBC [3]: 4 µg/mL | MIC (Cutibacterium acnes; Cutibacterium acnes, 48 h, read-out: MIC, C. acnes): 4 µg/mL | MBC (Cutibacterium acnes; Cutibacterium acnes, read-out: MBC, C. acnes): 4 µg/mL | EC50 (Artemia franciscana; immobilization, motionless organisms counted after 24 and 48 h, 25 °C, read-out: EC50): 155 µg/mL | EC50 (Artemia franciscana; [6]): 100 to 1000 µg/mL | Class (Artemia franciscana): Practically Nontoxic (100-1000) | Solubility in PBS, Class (Solubility in PBS): Very Slightly Soluble (1000-10 000)

O=C(O)CCCCCCCC(=O)O [azelaic acid]
log KOW [4]: 1.42
